≈ marks a conversion by molar mass, not a printed value. Where a name gives a salt, the structure may show the parent alone. Read-outs that look alike come from different tables or passages of the source.
What was measured:
[1] = tested on: Gram-positive and Gram-negative bacteria; details: in vitro; known / U.S. Pat. No. 3,914,257; cited from earlier work
[2] = tested on: Staphilococcus aureus Tour; experiment: MIC by broth microdilution, Staphylococcus aureus Tour; type: cell-based; details: Iso-Sensitest broth, 37° C., 20-24 h, air
[3] = tested on: Staphilococcus epidermidis ATCC 12228; experiment: MIC by broth microdilution, Staphylococcus epidermidis; type: cell-based; details: ATCC12228
[4] = tested on: Staphilococcus haemolyticus (clin. isolate); experiment: MIC by broth microdilution, Staphylococcus haemolyticus; type: cell-based
[5] = tested on: Streptococcus pyogenes C 203; experiment: MIC by broth microdilution, Streptococcus pyogenes; type: cell-based; details: C203
[6] = tested on: Streptococcus pneumonieae UC 41; experiment: MIC by broth microdilution, Streptococcus pneumoniae; type: cell-based; details: UC41
[7] = tested on: Enterococcus faecalis ATCC 7080; experiment: MIC by broth microdilution, Enterococcus faecalis; type: cell-based; details: ATCC7080
[8] = tested on: Clostridium perfringens ISS 30543; experiment: microbe, parasite or virus in culture; type: cell-based; details: ISS30543, 48 h
[9] = tested on: Bacteroides fragiles ATCC 9689; experiment: MIC by broth microdilution, Bacteroides fragilis; type: cell-based; details: ATCC9689, Table 2, internal code 1010, approx. 10^4 cfu/ml, Wilkins-Chalgren broth, 37° C., 48 h, N2-CO2-H2 (80:10:10)
[10] = tested on: Propionibacterium acnes ATCC 6919; experiment: MIC by broth microdilution, Propionibacterium acnes; type: cell-based; details: Cutibacterium acnes
[11] = tested on: Escherichia coli SKF 12140; experiment: MIC by broth microdilution, Escherichia coli; type: cell-based; details: SKF12140
[12] = tested on: Pseudomonas aeruginosa ATCC 10145; experiment: MIC by broth microdilution, Pseudomonas aeruginosa; type: cell-based; details: ATCC10145, Table 2, internal code 4, approx. 10^4 cfu/ml, Iso-Sensitest broth, 37° C., 20-24 h, air
[13] = tested on: Proteus vulgaris X19H ATCC 881; experiment: MIC by broth microdilution, Proteus vulgaris; type: cell-based
[14] = tested on: Tricophyton mentagrophytes; experiment: MIC by broth microdilution, Trichophyton mentagrophytes; type: cell-based; details: 72 h
[15] = Table 2, internal code 165, + 30% bovine serum
[16] = Table 2, internal code 165, inoculum 10^6 cfu/ml
[17] = Table 2, internal code 165, inoculum approx. 10^4 cfu/ml
[18] = ATCC6919, Table 2, internal code 1014, approx. 10^4 cfu/ml, Wilkins-Chalgren broth, 37° C., 48 h, N2-CO2-H2 (80:10:10), read-out: MIC

Row | SMILES | antimicrobial activity against Gram-positive and Gram-negative bacteria [1] | MIC [2, 15] [µg/mL] | MIC [2, 16] [µg/mL] | MIC [2, 17] [µg/mL] | MIC [3] [µg/mL] | MIC [4] [µg/mL] | MIC [5] [µg/mL] | MIC [6] [µg/mL] | MIC [7] [µg/mL] | MIC [8] [µg/mL] | MIC [9] [µg/mL] | MIC ([10]; ATCC6919, 48 h) [µg/mL] | MIC [11] [µg/mL] | MIC [12] [µg/mL] | MIC ([13]; ATCC881) [µg/mL] | MIC [14] [µg/mL] | MIC [10, 18] [µg/mL] | MIC ([13]; ATCC881, Table 2, internal code 79, approx. 10^4 cfu/ml, Iso-Sensitest broth, 37° C., 20-24 h, air, read-out: MIC) [µg/mL]
1 | COC(=O)c1cc2cc3c(c(O)c2c(=O)o1)OC1(CC3)Cc2c(O)c3c(c(O)c2O1)C(=O)C(OC)=CC3=O (stereo not drawn) [γ-Rubromycin] | known antimicrobial agents against Gram-positive and Gram-negative bacteria | – | – | – | – | – | – | – | – | – | – | – | – | – | – | – | – | –
2 | COC(=O)c1cc2cc3c(c(O)c2c(=O)o1)OC1(Cc2c(O)c4c(c(O)c2O1)C(=O)C(NCC#N)=CC4=O)CC3O (stereo not drawn) [Example 16, 7'-(cyanomethylen)amino purpuromycin] | – | 2 | 0.13 (≈ 0.231 µM) | 0.13 (≈ 0.231 µM) | 0.13 (≈ 0.231 µM) | 0.13 (≈ 0.231 µM) | 0.13 (≈ 0.231 µM) | 0.03 (≈ 0.0533 µM) | 0.13 (≈ 0.231 µM) | 0.13 (≈ 0.231 µM) | 0.5 (≈ 0.889 µM) | 0.016 (≈ 0.0284 µM) | > 128 | > 128 | > 128 | 128 (≈ 228 µM) | – | –
3 | COC(=O)c1cc2cc3c(c(O)c2c(=O)o1)OC1(Cc2c(O)c4c(c(O)c2O1)C(=O)C(NCCO)=CC4=O)CC3O (stereo not drawn) [Example 21, 7'-(2-hydroxyethylen)-amino purpuromycin] | – | 1 | 0.13 (≈ 0.229 µM) | 0.06 (≈ 0.106 µM) | 0.06 (≈ 0.106 µM) | 0.13 (≈ 0.229 µM) | 0.03 (≈ 0.0529 µM) | 0.016 (≈ 0.0282 µM) | 0.06 (≈ 0.106 µM) | – | 0.13 (≈ 0.229 µM) | – | ≥ 128 | ≥ 128 | ≥ 128 | ≥ 128 | 0.004 (≈ 0.00705 µM) | –
4 | COC(=O)c1cc2cc3c(c(O)c2c(=O)o1)OC1(Cc2c(O)c4c(c(O)c2O1)C(=O)C(NCCN)=CC4=O)CC3O (stereo not drawn) [Example 19, 7'-(2-aminoethylen)-amino purpuromycin trifluoroacetate] | – | 8 | 1 | 1 | 1 | 1 | 2 | 1 | 2 | 0.5 | > 128 | 0.5 | > 128 | > 128 | – | > 128 | – | > 128
5 | COC(=O)c1cc2cc3c(c(O)c2c(=O)o1)OC1(Cc2c(O)c4c(c(O)c2O1)C(=O)C(NCCNC(=O)OC(C)(C)C)=CC4=O)CC3O (stereo not drawn) [Example 18, 7'-(2-(N--BOC-amino)ethylen)-amino purpuromycin] | – | 2 | 0.13 (≈ 0.195 µM) | 0.13 (≈ 0.195 µM) | 0.06 (≈ 0.09 µM) | 0.06 (≈ 0.09 µM) | 0.13 (≈ 0.195 µM) | 0.06 (≈ 0.09 µM) | 0.13 (≈ 0.195 µM) | 0.25 (≈ 0.375 µM) | 0.5 (≈ 0.75 µM) | 0.016 (≈ 0.024 µM) | > 128 | > 128 | > 128 | > 128 | – | –
6 | COC(=O)c1cc2cc3c(c(O)c2c(=O)o1)OC1(Cc2c(O)c4c(c(O)c2O1)C(=O)C(NCC(F)(F)F)=CC4=O)CC3O (stereo not drawn) [Example 23, 7'-(2,2,2-trifluoroethylen)-amino purpuromycin] | – | 2 | 0.03 (≈ 0.0496 µM) | 0.016 (≈ 0.0264 µM) | 0.016 (≈ 0.0264 µM) | 0.016 (≈ 0.0264 µM) | 0.13 (≈ 0.215 µM) | 0.06 (≈ 0.0991 µM) | 0.03 (≈ 0.0496 µM) | 0.03 (≈ 0.0496 µM) | 0.06 (≈ 0.0991 µM) | – | > 128 | > 128 | > 128 | > 128 | 0.008 (≈ 0.0132 µM) | –

From patent US5475010A, “7'-amino-naphthazarin antibiotic derivatives” (Gruppo Lepetit S.p.A., priority 1991, dated 1995)
